From the supplement of paper PMC10307832

What follows are cell lines tested with Cn1nnc2c(C(N)=O)ncn2c1=O [Temozolomide] + COc1cc2c(Oc3ccc(NC(=O)C4(C(=O)Nc5ccc(F)cc5)CC4)cc3F)ccnc2cc1OCCCN1CCOCC1 [Foretinib] (partner 0.25 µM) (assay: relative viability (nuclei count vs DMSO), 5 days (fraction); higher = more cells survive). Conditions: first compound 20 µM.
Outline: (§1)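 After 5 days of treatment, lung cancer cells in 1536-well plates were fixed and stained in a single step (final 0.05% Triton X-100, 1% formaldehyde, 1 ug/ml Hoechst) and their nuclei counted on 4× images. Treatment had been applied by pin tool the day after seeding as one drug alone or as a fixed anchor-drug dose with five library-drug doses (not always all listed) in √10 steps. Relative viability is the nuclei count of treated wells divided by that of vehicle wells, and values are medians of duplicate plates.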

| Cell Line | relative viability |
| --- | --- |
| Calu-6 | 0.904 |
| ChaGo-K-1 | 0.975 |
| EBC-1 | 0.117 |
| EKVX | 0.356 |
| EMC-BAC-2 | 0.973 |
| EPLC-272H | 0.497 |
| H3255 | 0.201 |
| HARA | 0.641 |
| HCC-15 | 1.1 |
| HCC-78 | 0.552 |
| HCC-366 | 0.528 |
| HCC-827 | 0.153 |
| HOP-62 | 1.04 |
| IA-LM | 1.34 |
| LCLC-103H | 0.713 |
| NCI-H358 | 0.541 |
| NCI-H650 | 1.07 |
| NCI-H661 | 0.963 |
| NCI-H727 | 0.702 |
| NCI-H1299 | 1.12 |
| NCI-H1563 | 0.927 |
| NCI-H1623 | 0.519 |
| NCI-H2342 | 0.886 |
| SW 900 | 1.25 |

What follows are cell lines tested with Cn1nnc2c(C(N)=O)ncn2c1=O [Temozolomide] + Nc1nc2[nH]cc(CCc3ccc(C(=O)N[C@@H](CCC(=O)O)C(=O)O)cc3)c2c(=O)[nH]1 [Pemetrexed] (partner 0.2 µM) in the same assay as above. Conditions: first compound 0.2 µM.
Outline: as §1

| Cell Line | relative viability |
| --- | --- |
| 201T | 0.346 |
| A-427 | 1.01 |
| BEN | 0.801 |
| CAL-12T | 1.34 |
| COR-L23 | 0.188 |
| COR-L 105 | 1.12 |
| ChaGo-K-1 | 0.258 |
| EMC-BAC-2 | 0.468 |
| EPLC-272H | 0.321 |
| HARA | 0.203 |
| HCC-15 | 0.24 |
| HCC-44 | 0.688 |
| HCC-78 | 0.896 |
| HCC-366 | 0.143 |
| HCC-827 | 0.176 |
| HOP-62 | 0.302 |
| LCLC-103H | 0.467 |
| NCI-H358 | 0.196 |
| NCI-H522 | 0.765 |
| NCI-H650 | 0.934 |
| NCI-H661 | 0.92 |
| NCI-H1563 | 0.71 |
| NCI-H1792 | 1.11 |
| NCI-H2342 | 0.653 |
| SW 900 | 0.525 |

Same assay, conditions: first compound 0.6325 µM

| Cell Line | relative viability |
| --- | --- |
| 201T | 0.345 |
| A-427 | 0.919 |
| BEN | 0.92 |
| CAL-12T | 1.12 |
| COR-L23 | 0.211 |
| COR-L 105 | 1.07 |
| ChaGo-K-1 | 0.256 |
| EKVX | 0.38 |
| EMC-BAC-2 | 0.445 |
| EPLC-272H | 0.322 |
| H3255 | 0.544 |
| HARA | 0.228 |
| HCC-15 | 0.221 |
| HCC-44 | 0.669 |
| HCC-78 | 0.921 |
| HCC-366 | 0.17 |
| HCC-827 | 0.273 |
| HOP-62 | 0.264 |
| LCLC-103H | 0.461 |
| NCI-H358 | 0.173 |
| NCI-H522 | 0.972 |
| NCI-H650 | 0.902 |
| NCI-H661 | 0.882 |
| NCI-H1563 | 0.798 |
| NCI-H1648 | 0.614 |
| NCI-H1792 | 0.993 |
| NCI-H2342 | 0.86 |
| SW 900 | 0.496 |

Same assay, conditions: first compound 2 µM

| Cell Line | relative viability |
| --- | --- |
| 201T | 0.398 |
| A-427 | 0.957 |
| BEN | 0.936 |
| CAL-12T | 1.1 |
| COR-L23 | 0.19 |
| COR-L 105 | 1.02 |
| ChaGo-K-1 | 0.263 |
| EKVX | 0.352 |
| EMC-BAC-2 | 0.485 |
| EPLC-272H | 0.356 |
| H3255 | 0.59 |
| HARA | 0.269 |
| HCC-15 | 0.227 |
| HCC-44 | 0.699 |
| HCC-78 | 0.927 |
| HCC-366 | 0.188 |
| HCC-827 | 0.249 |
| HOP-62 | 0.287 |
| LCLC-103H | 0.519 |
| NCI-H358 | 0.18 |
| NCI-H522 | 1.27 |
| NCI-H650 | 0.963 |
| NCI-H661 | 1.01 |
| NCI-H1563 | 0.744 |
| NCI-H1648 | 0.554 |
| NCI-H1792 | 0.954 |
| NCI-H2342 | 0.914 |
| SW 900 | 0.507 |

Same assay, conditions: first compound 6.325 µM

| Cell Line | relative viability |
| --- | --- |
| 201T | 0.339 |
| A-427 | 0.783 |
| BEN | 0.741 |
| CAL-12T | 1.16 |
| COR-L23 | 0.184 |
| COR-L 105 | 1.06 |
| ChaGo-K-1 | 0.257 |
| EKVX | 0.388 |
| EMC-BAC-2 | 0.415 |
| EPLC-272H | 0.247 |
| H3255 | 0.543 |
| HARA | 0.2 |
| HCC-15 | 0.207 |
| HCC-44 | 0.707 |
| HCC-366 | 0.165 |
| HCC-827 | 0.264 |
| HOP-62 | 0.314 |
| LCLC-103H | 0.465 |
| NCI-H358 | 0.164 |
| NCI-H522 | 0.984 |
| NCI-H650 | 0.96 |
| NCI-H661 | 0.858 |
| NCI-H1563 | 0.739 |
| NCI-H1648 | 0.696 |
| NCI-H1792 | 0.819 |
| NCI-H2342 | 0.708 |
| SW 900 | 0.474 |

Same assay, conditions: first compound 20 µM

| Cell Line | relative viability |
| --- | --- |
| 201T | 0.316 |
| A-427 | 0.549 |
| BEN | 0.841 |
| CAL-12T | 1.39 |
| COR-L23 | 0.217 |
| COR-L 105 | 1.06 |
| ChaGo-K-1 | 0.246 |
| EKVX | 0.305 |
| EMC-BAC-2 | 0.509 |
| EPLC-272H | 0.317 |
| H3255 | 0.336 |
| HARA | 0.273 |
| HCC-15 | 0.228 |
| HCC-44 | 0.653 |
| HCC-78 | 0.958 |
| HCC-366 | 0.155 |
| HCC-827 | 0.16 |
| HOP-62 | 0.294 |
| LCLC-103H | 0.515 |
| NCI-H358 | 0.17 |
| NCI-H522 | 0.804 |
| NCI-H650 | 0.961 |
| NCI-H661 | 0.759 |
| NCI-H1563 | 0.747 |
| NCI-H1648 | 0.82 |
| NCI-H1792 | 1.01 |
| NCI-H2342 | 0.769 |
| SW 900 | 0.472 |

The cell lines below were run with C[C@@H](C(=O)N[C@@H](C1CCCCC1)C(=O)N2CCC[C@H]2C(=O)N[C@@H]3[C@@H](CC4=CC=CC=C34)OCC#CC#CCO[C@@H]5CC6=CC=CC=C6[C@@H]5NC(=O)[C@@H]7CCCN7C(=O)[C@H](C8CCCCC8)NC(=O)[C@H](C)NC)NC [AZD5582] + CC1(C)CCC(c2ccc(Cl)cc2)=C(CN2CCN(c3ccc(C(=O)NS(=O)(=O)c4ccc(N[C@H](CCN5CCOCC5)CSc5ccccc5)c(S(=O)(=O)C(F)(F)F)c4)cc3)CC2)C1 [Navitoclax] (partner 0.5 µM) in the same assay as above. Conditions: first compound 0.001581 µM.
Outline: as §1

| Cell Line | relative viability |
| --- | --- |
| 201T | 1.21 |
| A549 | 1.24 |
| A-427 | 0.779 |
| BEN | 0.0668 |
| COR-L23 | 0.963 |
| COR-L 105 | 0.8 |
| Calu-6 | 0.718 |
| ChaGo-K-1 | 0.977 |
| EBC-1 | 0.394 |
| EKVX | 0.878 |
| EMC-BAC-2 | 1.07 |
| EPLC-272H | 0.608 |
| H3255 | 0.479 |
| HARA | 1.11 |
| HCC-15 | 0.629 |
| HCC-44 | 0.919 |
| HCC-78 | 0.69 |
| HCC-366 | 1.05 |
| HCC-827 | 1.09 |
| HOP-62 | 0.945 |
| IA-LM | 0.499 |
| NCI-H727 | 0.409 |
| NCI-H1299 | 1 |
| NCI-H1792 | 0.608 |

Same assay, conditions: first compound 0.005 µM

| Cell Line | relative viability |
| --- | --- |
| 201T | 1.23 |
| A549 | 1.26 |
| A-427 | 0.831 |
| BEN | 0.0512 |
| CAL-12T | 0.531 |
| COR-L23 | 1.07 |
| COR-L 105 | 0.657 |
| Calu-6 | 0.635 |
| ChaGo-K-1 | 1.18 |
| EBC-1 | 0.408 |
| EKVX | 1.01 |
| EMC-BAC-2 | 0.984 |
| EPLC-272H | 0.743 |
| H3255 | 0.59 |
| HARA | 1.07 |
| HCC-15 | 0.675 |
| HCC-44 | 0.692 |
| HCC-78 | 0.948 |
| HCC-366 | 0.925 |
| HCC-827 | 1.01 |
| HOP-62 | 0.917 |
| IA-LM | 0.538 |
| NCI-H727 | 0.426 |
| NCI-H1299 | 1.07 |
| NCI-H1792 | 0.632 |

Same assay, conditions: first compound 0.01581 µM

| Cell Line | relative viability |
| --- | --- |
| 201T | 1.12 |
| A549 | 1.2 |
| A-427 | 0.896 |
| BEN | 0.0565 |
| CAL-12T | 1.26 |
| COR-L23 | 1 |
| COR-L 105 | 0.746 |
| Calu-6 | 0.871 |
| ChaGo-K-1 | 0.797 |
| EBC-1 | 0.4 |
| EKVX | 0.798 |
| EMC-BAC-2 | 1.15 |
| EPLC-272H | 1.05 |
| H3255 | 0.375 |
| HARA | 1.14 |
| HCC-15 | 0.675 |
| HCC-44 | 1.01 |
| HCC-78 | 0.775 |
| HCC-366 | 0.998 |
| HCC-827 | 0.972 |
| HOP-62 | 1.08 |
| IA-LM | 0.951 |
| NCI-H727 | 0.366 |
| NCI-H1299 | 1.08 |
| NCI-H1792 | 0.578 |

Same assay, conditions: first compound 0.05 µM

| Cell Line | relative viability |
| --- | --- |
| 201T | 1.31 |
| A549 | 1.14 |
| A-427 | 0.756 |
| BEN | 0.0544 |
| CAL-12T | 0.854 |
| COR-L23 | 1.22 |
| COR-L 105 | 0.813 |
| Calu-6 | 0.467 |
| ChaGo-K-1 | 0.994 |
| EBC-1 | 0.373 |
| EKVX | 0.959 |
| EMC-BAC-2 | 0.62 |
| EPLC-272H | 0.208 |
| H3255 | 0.213 |
| HARA | 1.12 |
| HCC-15 | 0.619 |
| HCC-44 | 0.581 |
| HCC-78 | 0.617 |
| HCC-366 | 1.07 |
| HCC-827 | 1.04 |
| HOP-62 | 1.14 |
| IA-LM | 0.714 |
| NCI-H727 | 0.483 |
| NCI-H1299 | 1.04 |
| NCI-H1792 | 0.836 |
